This passage reports IC50 and inhibition results from US8846949B2, “Pyrrolopyrazoles as N-type calcium channel blockers” (Janssen Pharmaceutica NV, priority 2012, dated 2014).

SMILES strings stand for the structures. pIC50: −log10 of the molar value. Where two headings read alike, the source gives them in different places.

For assay [1], the target named is T1, N-type calcium channel α1B (Cav2.2), β3 and α2δ subunits (Homo sapiens, UniProt Q00975).
T1 construct: expressed in transfected cells
Briefly: Functional assay, antagonism of N-type calcium channel (FDSS calcium mobilization response to KCl depolarization). It counts as cell-based. The following applies: for pIC50: HEK stable cell line, 50 mM KCl depolarization, six-point concentration-response; for inhibition at 0.33 µM: 0.33 μM compound, FDSS, 50 mM KCl. The essentials:
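HEK cells stably co-expressing α1B (Cav2.2), β3 and α2δ subunits were loaded with calcium dye, preincubated with compound for 5 min, then depolarized with 50 mM KCl and read for 3 min by FDSS fluorescence. IC50 from six-point curves, normalized to KCl maximum and buffer minimum.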

Another assay concerns the target T2, N-type calcium channel (Homo sapiens, UniProt Q00975).
T2 construct: expressed in transfected cells
Kind of assay: Automated electrophysiology assay (QPatch-HT whole-cell patch clamp). It counts as cell-based. In outline:
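Whole-cell QPatch recordings used 10 mM Ba²⁺/TEA external solution and CsCl internal solution. Trains of 15 pulses at 5 Hz to +20 mV from −80 mV were applied; 1st- and 15th-pulse currents were normalized to control, with CdCl2 zeroing. […]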
(Patch clamp records ionic current or voltage across a cell membrane.)

[2] abbreviates: high frequency (15th pulse of train, 5 Hz), read-out: QPatch at High Frequency % Inhibition.
[3] abbreviates: low frequency (1st pulse of train), read-out: QPatch at Low Frequency % Inhibition.

T2 sequence (Q00975 whole entry): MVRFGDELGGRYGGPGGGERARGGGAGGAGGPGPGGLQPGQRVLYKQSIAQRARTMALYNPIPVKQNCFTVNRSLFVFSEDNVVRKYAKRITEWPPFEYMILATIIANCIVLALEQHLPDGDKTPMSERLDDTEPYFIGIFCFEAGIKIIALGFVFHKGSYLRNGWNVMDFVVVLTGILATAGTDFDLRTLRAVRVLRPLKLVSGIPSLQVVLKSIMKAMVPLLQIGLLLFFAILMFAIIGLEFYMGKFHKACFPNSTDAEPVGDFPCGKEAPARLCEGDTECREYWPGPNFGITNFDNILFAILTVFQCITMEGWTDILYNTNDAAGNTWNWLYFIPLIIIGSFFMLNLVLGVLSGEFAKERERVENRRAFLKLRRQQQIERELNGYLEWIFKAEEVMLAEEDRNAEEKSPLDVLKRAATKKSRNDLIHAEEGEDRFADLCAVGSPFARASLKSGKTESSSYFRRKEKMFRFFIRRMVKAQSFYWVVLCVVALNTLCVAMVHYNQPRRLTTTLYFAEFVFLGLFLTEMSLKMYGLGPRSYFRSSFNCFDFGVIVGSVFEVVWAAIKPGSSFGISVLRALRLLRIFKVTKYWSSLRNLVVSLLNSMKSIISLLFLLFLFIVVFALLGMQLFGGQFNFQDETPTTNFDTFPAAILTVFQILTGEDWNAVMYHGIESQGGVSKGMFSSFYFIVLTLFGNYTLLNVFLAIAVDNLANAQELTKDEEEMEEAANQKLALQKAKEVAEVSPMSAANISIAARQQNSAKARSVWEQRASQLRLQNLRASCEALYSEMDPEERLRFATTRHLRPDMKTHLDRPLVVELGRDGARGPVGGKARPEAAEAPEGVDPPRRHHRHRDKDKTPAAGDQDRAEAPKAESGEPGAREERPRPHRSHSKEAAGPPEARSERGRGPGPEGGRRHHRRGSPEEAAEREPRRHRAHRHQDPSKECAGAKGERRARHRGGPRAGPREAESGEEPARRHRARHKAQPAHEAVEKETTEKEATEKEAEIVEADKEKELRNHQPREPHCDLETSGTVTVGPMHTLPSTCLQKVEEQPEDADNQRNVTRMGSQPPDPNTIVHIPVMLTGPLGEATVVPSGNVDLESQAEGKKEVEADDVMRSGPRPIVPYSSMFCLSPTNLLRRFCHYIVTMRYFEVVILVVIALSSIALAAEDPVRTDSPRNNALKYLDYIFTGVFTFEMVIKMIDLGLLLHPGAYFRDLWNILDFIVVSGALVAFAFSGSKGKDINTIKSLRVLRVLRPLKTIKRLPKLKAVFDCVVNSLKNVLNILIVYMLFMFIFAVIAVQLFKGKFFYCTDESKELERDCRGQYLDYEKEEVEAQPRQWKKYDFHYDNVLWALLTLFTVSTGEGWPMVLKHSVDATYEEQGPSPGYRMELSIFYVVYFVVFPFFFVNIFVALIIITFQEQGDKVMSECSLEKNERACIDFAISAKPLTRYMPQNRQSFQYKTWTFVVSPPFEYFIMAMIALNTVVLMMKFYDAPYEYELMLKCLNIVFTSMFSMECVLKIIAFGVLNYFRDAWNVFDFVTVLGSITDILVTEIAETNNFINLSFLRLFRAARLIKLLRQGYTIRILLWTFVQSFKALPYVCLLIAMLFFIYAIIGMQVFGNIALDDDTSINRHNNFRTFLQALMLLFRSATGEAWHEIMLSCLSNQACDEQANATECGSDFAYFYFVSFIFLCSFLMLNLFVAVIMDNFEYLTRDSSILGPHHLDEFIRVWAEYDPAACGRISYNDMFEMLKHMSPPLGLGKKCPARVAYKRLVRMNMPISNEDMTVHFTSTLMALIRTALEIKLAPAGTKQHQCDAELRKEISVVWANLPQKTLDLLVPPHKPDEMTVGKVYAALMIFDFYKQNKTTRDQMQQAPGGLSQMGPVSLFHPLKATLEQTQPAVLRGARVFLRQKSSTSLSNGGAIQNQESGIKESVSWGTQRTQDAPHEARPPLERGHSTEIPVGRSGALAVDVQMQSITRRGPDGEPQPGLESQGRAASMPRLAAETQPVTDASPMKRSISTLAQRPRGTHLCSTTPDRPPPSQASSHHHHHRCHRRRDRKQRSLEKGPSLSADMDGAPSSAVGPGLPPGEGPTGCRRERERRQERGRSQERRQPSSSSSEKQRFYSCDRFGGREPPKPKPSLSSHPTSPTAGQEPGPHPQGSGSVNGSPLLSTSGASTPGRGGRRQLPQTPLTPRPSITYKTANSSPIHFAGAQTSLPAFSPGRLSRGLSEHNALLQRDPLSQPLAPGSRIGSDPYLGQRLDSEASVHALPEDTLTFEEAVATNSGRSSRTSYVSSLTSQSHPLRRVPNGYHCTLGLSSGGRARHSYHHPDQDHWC
T2 sequence (P54284 whole entry partner): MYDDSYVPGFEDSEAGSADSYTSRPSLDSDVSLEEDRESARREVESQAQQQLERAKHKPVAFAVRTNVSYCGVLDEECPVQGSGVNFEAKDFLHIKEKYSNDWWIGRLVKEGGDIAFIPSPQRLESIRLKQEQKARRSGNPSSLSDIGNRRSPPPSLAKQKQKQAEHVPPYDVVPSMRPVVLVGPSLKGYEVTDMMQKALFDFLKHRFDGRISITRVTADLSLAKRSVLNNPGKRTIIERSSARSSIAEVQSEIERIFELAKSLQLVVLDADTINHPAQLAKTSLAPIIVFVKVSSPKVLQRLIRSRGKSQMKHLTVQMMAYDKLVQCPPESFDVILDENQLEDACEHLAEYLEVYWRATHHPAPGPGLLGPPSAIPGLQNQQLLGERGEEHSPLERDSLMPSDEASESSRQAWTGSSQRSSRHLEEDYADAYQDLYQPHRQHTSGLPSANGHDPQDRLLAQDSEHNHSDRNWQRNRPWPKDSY
T2 sequence (P54289 25-956 partner limits assumed): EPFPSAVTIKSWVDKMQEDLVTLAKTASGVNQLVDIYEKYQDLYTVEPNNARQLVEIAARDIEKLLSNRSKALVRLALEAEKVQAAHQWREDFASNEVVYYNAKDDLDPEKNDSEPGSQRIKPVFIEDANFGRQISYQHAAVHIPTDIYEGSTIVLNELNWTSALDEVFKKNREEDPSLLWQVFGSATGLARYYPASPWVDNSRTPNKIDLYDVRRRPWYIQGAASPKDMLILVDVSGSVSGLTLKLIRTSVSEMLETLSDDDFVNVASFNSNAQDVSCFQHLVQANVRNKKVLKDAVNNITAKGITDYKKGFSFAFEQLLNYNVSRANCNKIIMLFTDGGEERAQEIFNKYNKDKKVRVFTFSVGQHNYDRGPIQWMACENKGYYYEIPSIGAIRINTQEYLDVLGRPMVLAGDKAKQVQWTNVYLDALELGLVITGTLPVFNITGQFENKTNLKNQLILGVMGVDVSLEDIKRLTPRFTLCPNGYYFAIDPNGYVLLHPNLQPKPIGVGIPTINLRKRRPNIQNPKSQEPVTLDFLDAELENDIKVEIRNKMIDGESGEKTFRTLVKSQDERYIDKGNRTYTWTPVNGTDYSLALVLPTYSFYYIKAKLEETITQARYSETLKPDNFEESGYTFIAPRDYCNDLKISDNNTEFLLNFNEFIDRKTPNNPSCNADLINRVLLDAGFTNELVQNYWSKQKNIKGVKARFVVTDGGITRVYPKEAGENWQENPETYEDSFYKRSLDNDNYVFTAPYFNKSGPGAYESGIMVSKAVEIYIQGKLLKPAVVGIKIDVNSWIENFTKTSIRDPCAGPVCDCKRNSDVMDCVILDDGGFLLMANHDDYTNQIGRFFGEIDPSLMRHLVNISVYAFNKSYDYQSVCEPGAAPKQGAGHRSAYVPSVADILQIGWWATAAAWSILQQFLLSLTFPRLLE
T2 sequence (P54289 957-1103 partner limits assumed): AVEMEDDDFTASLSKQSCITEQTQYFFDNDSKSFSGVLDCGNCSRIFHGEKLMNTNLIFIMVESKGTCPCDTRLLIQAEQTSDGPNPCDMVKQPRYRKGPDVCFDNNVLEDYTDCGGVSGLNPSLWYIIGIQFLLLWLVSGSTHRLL
T1 sequence (Q00975 whole entry): as the sequence (Q00975 whole entry) above
T1 sequence (P54284 whole entry partner): as the sequence (P54284 whole entry partner) above
T1 sequence (P54289 25-956 partner limits assumed): as the sequence (P54289 25-956 partner limits assumed) above
T1 sequence (P54289 957-1103 partner limits assumed): as the sequence (P54289 957-1103 partner limits assumed) above

What is called pIC50 is the negative decadic logarithm of the IC50, by convention in mol/L. For orientation: inhibition means the drop in the measured response relative to a control, in per cent. For the compound `COc1ccccc1-n1nc2c(c1-c1ccc(Cl)cc1)CN(S(=O)(=O)CCNS(=O)(=O)C(C)C)C2` [Cpd 45, N-(2-{[3-(4-Chlorophenyl)-2-(2-methoxyphenyl)-2,6-dihydropyrrolo[3,4-c]pyrazol-5(4H)-yl]sulfonyl}ethyl)propane-2-sulfonamide], the pIC50 in assay [1] was 7.89. Moreover, the inhibition at 0.1 µM at N-type calcium channel (setting [2]) and on N-type calcium channel (setting [3]) was 26% throughout.
For the compound `CCc1ccccc1-n1nc2c(c1-c1ccc(Cl)cc1)CN(S(C)(=O)=O)C2` [Cpd 2, 3-(4-Chlorophenyl)-2-(2-ethylphenyl)-5-(methylsulfonyl)-2,4,5,6-tetrahydropyrrolo[3,4-c]pyrazole], the pIC50 in assay [1] was 7.07. Moreover, the inhibition at 1 µM is 22% at N-type calcium channel (setting [2]) and -9% at N-type calcium channel (setting [3]).
`COc1ccccc1-n1nc2c(c1-c1ccc(Cl)cc1)CN(S(=O)(=O)CCNS(C)(=O)=O)C2` [Cpd 44, N-(2-{[3-(4-Chlorophenyl)-2-(2-methoxyphenyl)-2,6-dihydropyrrolo[3,4-c]pyrazol-5(4H)-yl]sulfonyl}ethyl)methanesulfonamide]: in assay [1], the pIC50 was 8.05. Further, the inhibition at 0.1 µM is -5% at N-type calcium channel (setting [2]) and -2% at N-type calcium channel (setting [3]).
Taken in the same sequence, the figures for `COc1ccccc1-n1nc2c(c1-c1ccc(Cl)cc1)CN(S(=O)(=O)N1C[C@H](C)O[C@@H](C)C1)C2` (mixture of isomers) [Cpd 61, 3-(4-Chlorophenyl)-5-{[(2S,6S)-2,6-dimethylmorpholin-4-yl]sulfonyl}-2-(2-methoxyphenyl)-2,4,5,6-tetrahydropyrrolo[3,4-c]pyrazole] were 8.30, 50% and 53%.
`CC(C)CS(=O)(=O)N1Cc2nn(-c3cccc4c3OCO4)c(-c3ccc(Cl)cc3)c2C1` [Cpd 82, 2-(1,3-Benzodioxol-4-yl)-3-(4-chlorophenyl)-5-[(2-methylpropyl)sulfonyl]-2,4,5,6-tetrahydropyrrolo[3,4-c]pyrazole]: in assay [1], the inhibition at 0.33 µM was found to be 87% and the pIC50 was 7.55. The inhibition at 0.1 µM on N-type calcium channel (setting [2]) is 15%. Besides, the inhibition at 0.1 µM at N-type calcium channel (setting [3]) worked out at 4%.
Take `CCc1ccccc1-n1nc2c(c1-c1ccc(Cl)cc1)CN(C(=O)C(F)(F)F)C2` [Cpd 6, 3-(4-Chlorophenyl)-2-(2-ethylphenyl)-5-(trifluoroacetyl)-2,4,5,6-tetrahydropyrrolo[3,4-c]pyrazole]: the pIC50 in assay [1] is 6.74. Moreover, the inhibition at 1 µM is 23% on N-type calcium channel (setting [2]) and 16% on N-type calcium channel (setting [3]).
As to `CC1CCN(S(=O)(=O)N2Cc3nn(-c4cccc5c4OCC5)c(-c4ccc(Cl)cc4)c3C2)CC1` [Cpd 86, 3-(4-Chlorophenyl)-2-(2,3-dihydro-1-benzofuran-7-yl)-5-[(4-methylpiperidin-1-yl)sulfonyl]-2,4,5,6-tetrahydropyrrolo[3,4-c]pyrazole], the inhibition at 0.33 µM in assay [1] stood at 96%. Besides, the pIC50 in assay [1] was 8.15. The inhibition at 0.1 µM came out at 33% on N-type calcium channel (setting [2]) and 20% on N-type calcium channel (setting [3]).
